Results on five molecules are retold here after article PMC8621770, “New Compounds with Bioisosteric Replacement of Classic Choline Kinase Inhibitors Show Potent Antiplasmodial Activity” (Pharmaceutics, 2021).

In data set [1] the target is T1, PfCK (Plasmodium falciparum, UniProt Q8IM71).
T1 construct: A truncated form of PfCK (Δ79-440) featuring an N-terminal 6× His-tag; 6xHis (N); host or cells: Escherichia coli BL21 (DE3) Star
The settings on record: reference compounds, cited from earlier work; for inhibition of PfCK depending on substrate (in words): choline kinase or ethanolamine kinase activity; for IC50: read-out: IC50 PfCK b (compound concentration required to inhibit PfCK enzyme by 50%).

The subject of data set [2] is P. falciparum strain 3D7. Also noted: method as in PMID 27616047, PMID 29880399, PMID 25089811. The settings on record: reference compounds; read-out: IC50 a (In vitro IC50 values against P. falciparum); cited from earlier work.
Data set [3] can be described thus: Aggregation of compound solutions for the enzymatic assays. It counts as physicochemical. The conditions noted are these: even at 5 mM concentration. An excerpt:
As a result, it was difficult to measure their exact concentration, which is crucial for enzymatic assays.

Data set [4] addresses T1, PfCK. Nature of the data set: Spectrophotometric coupled enzymatic assay for PfCK activity (substrate choline). In kind it is biochemical. The settings on record: read-out: PfCK Fractional Activity at 25 µM.
Data set [5] has as its system P. falciparum strain 3D7. Kind of data set: Antimalarial activity, P. falciparum lactate dehydrogenase growth inhibition assay. It counts as cell-based, Plasmodium falciparum. The settings on record: Plasmodium falciparum, Erythrocyte; P. falciparum 3D7 in human erythrocytes, 72 h, LDH readout; read-out: IC50 a (In vitro IC50 values against P. falciparum).

Where two headings read alike, the source gives them in different places.

T1 sequence (Q8IM71 entry or part of it): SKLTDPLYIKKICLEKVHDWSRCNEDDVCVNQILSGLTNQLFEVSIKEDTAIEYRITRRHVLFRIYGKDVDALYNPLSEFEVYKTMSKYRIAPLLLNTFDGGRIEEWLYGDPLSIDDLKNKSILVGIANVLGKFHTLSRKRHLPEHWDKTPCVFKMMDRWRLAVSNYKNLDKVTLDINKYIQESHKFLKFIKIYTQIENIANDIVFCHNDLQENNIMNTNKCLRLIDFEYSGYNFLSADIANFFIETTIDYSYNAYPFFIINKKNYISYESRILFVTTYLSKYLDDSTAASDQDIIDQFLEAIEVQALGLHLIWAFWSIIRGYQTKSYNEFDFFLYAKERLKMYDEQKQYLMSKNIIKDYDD

Regarding `CN(C)c1cc[n+](Cc2ccc(-c3ccc(C[n+]4ccc(N5CCCC5)cc4)cc3)cc2)cc1` [BR-23], on PfCK [1], the “inhibition of PfCK depending on substrate (in words)” value is recorded as “only had inhibitory activity when the enzyme-substrate was ethanolamine” and the IC50 is 276000 nM. Further, the IC50 with P. falciparum strain 3D7 [2] is 3 ± 0.2 nM.

Turning to `CN(C)c1cc[n+](Cc2ccc(CCCCc3ccc(C[n+]4ccc(N5CCCC5)cc4)cc3)cc2)cc1` [BR-25], at PfCK [1], the “inhibition of PfCK depending on substrate (in words)” value is “only had inhibitory activity when the enzyme-substrate was ethanolamine” and the IC50 was 103000 nM. Moreover, in the data set with P. falciparum strain 3D7 [2], the IC50 is 2 ± 0.3 nM.

What is called melting point is the temperature, or range, at which the solid turns liquid. `[Br-].c1ccc(-c2ccc(C[n+]3cnc(N4CCCC4)c4sccc43)cc2)cc1` [Fa-M1, 1-([1,1’-biphenyl]-4-ylmethyl)-4-(pyrrolidin-1-yl)thieno[3,2-d]pyrimidin-1-ium bromide] came in with a melting point of 295 to 298 °C. Besides, in data set [3], the aggregation result is on record as “severe aggregation”. Further, the remaining activity at 25 µM on PfCK [4] turned out to be 54.6 ± 11.7%. The IC50 with P. falciparum strain 3D7 [5] is 41 nM.

Take `[Br-].c1ccc(-c2ccc(C[n+]3ccc(N4CCCC4)c4sccc43)cc2)cc1` [Fa-M2, 4-([1,1’-biphenyl]-4-ylmethyl)-7-(pyrrolidin-1-yl)thieno[3,2-b]pyridin-4-ium bromide]: the melting point is 271 to 273 °C. In addition, in data set [3], the aggregation entry is “severe aggregation”. Besides, at PfCK [4], the remaining activity at 25 µM stood at 101 ± 13.7%. The IC50 with P. falciparum strain 3D7 [5] was found to be 48.9 nM.

`[Br-].c1ccc(-c2ccc(C[n+]3cnc(N4CCCC4)c4ccsc43)cc2)cc1` [Fa-M3, 1-([1,1’-biphenyl]-4-ylmethyl)-4-(pyrrolidin-1-yl)thieno[2,3-d]pyrimidin-1-ium bromide] yielded a melting point of 275 to 278 °C. The aggregation entry in data set [3] was “severe aggregation”. Further, on PfCK [4], the remaining activity at 25 µM came to 96.9 ± 18.7%. Further, the IC50 in the data set with P. falciparum strain 3D7 [5] came to 35.1 nM.
